Patent US9066936B2, “Solid pharmaceutical composition comprising a benzimidazole-7-carboxylate derivative and a pH control agent” (Takeda Pharmaceutical Company Limited, priority 2007, dated 2015)

Tests used:
[1] = Solubility of compound A in aqueous solutions with different pHs; format: physicochemical; conditions: thermodynamic from solid, 25° C.
Procedure: An excess amount of compound A and an aqueous solution were placed in a test tube, and the mixture was shaken at 25° C. for 30 sec every 5 min. After 30 min, the solution was filtered with a 0.45 μm membrane filter to give a sample. Using the sample, the concentration of compound A was measured under the following HPLC conditions.
detector: ultraviolet absorption photometer,
measurement wavelength: 260 nm
column: YMC-Pack ProC18, 3 μm, inner diameter: 6 mm,
column temperature: 25° C. • mobile phase: 0.05 mol/L phosphate buffer (pH 3.0)/acetonitrile mixed solution (1:1)

[2] = pH of pH control agent dissolved or suspended in water; format: physicochemical; conditions: 1% w/v in water at 25° C.
Procedure: Here, the pH of the pH control agent is measured under the following conditions. To be precise, it is a pH of a solution or suspension obtained by dissolving or suspending a pH control agent in water at a concentration of 1% w/v at 25° C.
A pH control agent was dissolved or suspended in water at a concentration of 1% w/v at 25° C., and the resulting solution or suspension was measured for pH.

Row | Structure (SMILES) | solubility at 30 min ([1]; aqueous buffer, pH 2.0 Britton Robinson buffer) [µg/mL] | solubility at 30 min ([1]; aqueous buffer, pH 3.0 Britton Robinson buffer) [µg/mL] | solubility at 30 min ([1]; aqueous buffer, pH 4.0 Britton Robinson buffer) [µg/mL] | solubility at 30 min ([1]; aqueous buffer, pH 5.0 Britton Robinson buffer) [µg/mL] | solubility at 30 min ([1]; aqueous buffer, pH 6.0 Britton Robinson buffer) [µg/mL] | solubility at 30 min ([1]; aqueous buffer, pH 7.0 Britton Robinson buffer) [µg/mL] | solubility at 30 min ([1]; simulated gastric fluid, 0.1 mol/L HCl) [µg/mL] | pH (25° C.) [2]
1 | CCOc1nc2cccc(C(=O)OCc3oc(=O)oc3C)c2n1Cc1ccc(-c2ccccc2-c2noc(=O)[nH]2)cc1.[K] [compound A, (5-methyl-2-oxo-1,3-dioxol-4-yl)methyl 2-ethoxy-1-{[2′-(5-oxo-4,5-dihydro-1,2,4-oxadiazol-3-yl)biphenyl-4-yl]methyl}-1H-benzimidazole-7-carboxylate potassium salt] | < 10 | < 10 | < 10 | < 10 | < 10 | 940 | < 10 | 
2 | O=C([O-])/C=C/C(=O)O.[Na+] [monosodium fumarate] |  |  |  |  |  |  |  | 3.57
3 | O=P([O-])(O)O.[Na+] [sodium dihydrogen phosphate] |  |  |  |  |  |  |  | 4.56
